Like-named read-outs stand apart in the source and are kept apart here.
How the values were obtained:
human CB1 receptors [1] = biological target: T1, human CB1 receptors (Homo sapiens, UniProt P21554); assay: cell-based; type: cell-based; set-up: expressed in transfected cells; host or cells: mouse AtT20 FlpIn cells
male Long-Evans rats [2] = assay: Repeated CBN dosing (15 days) polysomnography in rats; type: in vivo, rat; settings: CBN 10 mg/kg IP daily for 15 days
Experimental: In the repeated dosing experiment, eight rats were randomly assigned to vehicle condition and eight to the CBN 10 mg/kg condition. Rats were administered the same treatment at ZT13 each day for 15 days, however, telemetry recordings were taken on days 1, 8, and 15 of respective treatments, and the response was compared between subjects.

[3] = Pharmacokinetic analysis of CBN and metabolites in rat plasma and brain (LC-MS/MS); type: in vivo
Experimental: Rats received 10 mg/kg CBN IP at approximately ZT13. Rats were then anesthetized with isoflurane at selected ZT points (13, 13.5, 14, 15, 17, 19, and 21) and blood was collected by terminal cardiac puncture. Brains were harvested, snap frozen on dry ice and plasma was isolated via centrifugation at 9000 × g for 10 min at 4 °C. All tissues were stored at −80 °C until analysis. CBN and metabolite concentrations in plasma and brain samples were assayed by liquid chromatography-tandem mass spectrometry (LC–MS/MS) using a using a Shimadzu Nexera LC-30AD UHPLC system coupled to a Shimadzu SPD-20AV photodiode array detector and a Shimadzu LC–MS-8040 triple-quadrupole mass spectrometer, equipped with an electrospray ionization (ESI) source (Shimadzu Corp.; Kyoto, Japan) as described previously.
LC-MS/MS. Plasma samples (50 µL) were spiked with internal standard (12.5 µg/mL d3-THC, 5 µL) and protein precipitation was achieved by vortex-mixing with a 3x volume of ice-cold acetonitrile. The organic layer was isolated by centrifugation (6000 g for 10 min, 4 °C) and evaporated to dryness using N2 gas. Samples were reconstituted in acetonitrile (90 µL) and 0.1% ammonium formate in water (300 µL) for supported-liquid extraction (SLE) using dichloromethane and methyl tert-butyl ether Biotage Isolute SLE+ columns (Uppsala, Sweden) as previously described. Brain samples were prepared as described for plasma samples with minor modifications. Briefly, each half brain was homogenised in methanol: water (2:1, 10x, w/v) and spiked with d3-THC as an internal standard. Homogenates were centrifuged (20,000 g for 30 min, 4 °C). Supernatants were then extracted and prepared as described above.
Quantification of CBN, 11-OH-CBN and 11-COOH-CBN in plasma and brain samples was performed by comparing experimental samples to eight-point standard curves prepared with known amounts of cannabinoid. Plasma and brain concentrations at each time point were averaged and pharmacokinetic parameters were calculated by noncompartmental analysis. Elimination rate constants were determined by linear regression of the terminal component of the concentration-time curve using GraphPad Prism 8.2 (La Jolla, USA). The log-linear trapezoidal method was used to calculate the area under concentration-time curve using equations described previously.

[4] = cited from earlier work
[5] = rats, oral vs IP of the current study; cited from earlier work
human CB1 receptors [6] = biological target: T1, human CB1 receptors; set-up: expressed in transfected cells; method as in PMID 7565624, PMID 9690851; settings: some studies; cited from earlier work
male Long-Evans rats [7] = assay: Acute polysomnography (wireless EEG/EMG telemetry) in rats
rats [8] = test system: rats; set-up: method as in PMID 168604; settings: cited from earlier work
rats [9] = settings: cited from earlier work
human CB2 receptors = biological target: T2, human CB2 receptors (Homo sapiens, UniProt P34972); assay: Membrane potential (GIRK) assay in AtT20 cells, human CB2; type: cell-based; settings: at 10 µM; normalized to 1 µM CP 55,940
T2 construct: expressed in transfected cells; host or cells: mouse AtT20 FlpIn cells
T2 sequence (P34972 whole entry): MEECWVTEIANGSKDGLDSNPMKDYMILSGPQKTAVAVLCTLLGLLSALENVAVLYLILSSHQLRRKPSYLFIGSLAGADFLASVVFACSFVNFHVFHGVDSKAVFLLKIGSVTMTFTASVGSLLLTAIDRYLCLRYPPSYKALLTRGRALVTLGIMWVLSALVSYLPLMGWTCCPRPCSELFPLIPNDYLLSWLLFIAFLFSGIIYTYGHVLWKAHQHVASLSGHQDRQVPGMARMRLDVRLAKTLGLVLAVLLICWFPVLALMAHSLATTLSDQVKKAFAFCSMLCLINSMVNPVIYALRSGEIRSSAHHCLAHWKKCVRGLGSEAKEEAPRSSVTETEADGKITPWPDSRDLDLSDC

[10] = test system: non-clinical sample of poor sleepers; set-up: method as in PMID 37796540; settings: 20 mg CBN alone, self-reported measures, vs placebo; cited from earlier work
[11] = days 1, 8, 15, not subject to tolerance
[12] = acute IP at ZT13 vs vehicle, CBN 10, 30, 100 mg/kg, 11-OH-CBN 1, 3, 10 mg/kg
[13] = acute IP at ZT13 vs vehicle, CBN 10, 30, 100 mg/kg, zolpidem 10 mg/kg, 11-OH-CBN 1, 3, 10 mg/kg
[14] = rats, 10 and 30 mg/kg CBN IP, CBN 99.2% pure with 0.8% Δ8-THC, ref Järbe et al (1987)

T1 sequence (P21554 whole entry): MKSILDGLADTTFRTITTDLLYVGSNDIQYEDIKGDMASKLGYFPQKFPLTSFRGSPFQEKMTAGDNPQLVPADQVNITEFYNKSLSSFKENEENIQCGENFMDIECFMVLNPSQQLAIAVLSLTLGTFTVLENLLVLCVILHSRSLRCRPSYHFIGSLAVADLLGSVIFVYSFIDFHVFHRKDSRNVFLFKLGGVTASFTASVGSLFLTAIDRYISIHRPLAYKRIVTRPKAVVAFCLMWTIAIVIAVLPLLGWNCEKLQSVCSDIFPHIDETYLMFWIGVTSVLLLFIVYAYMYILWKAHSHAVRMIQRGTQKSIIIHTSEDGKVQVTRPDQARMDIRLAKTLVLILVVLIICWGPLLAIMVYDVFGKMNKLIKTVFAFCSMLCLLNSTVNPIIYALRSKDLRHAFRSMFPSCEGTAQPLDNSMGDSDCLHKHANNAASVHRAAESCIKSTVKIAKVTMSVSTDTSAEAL

SMILES: CCCCCc1cc(O)c2c(c1)OC(C)(C)c1ccc(C)cc1-2 [CBN, cannabinol]
- EC50 (human CB1 receptors [1]): 3.98 µM
- activity at CB1 receptors (in words) (human CB1 receptors [1]): low activity
- Emax (human CB1 receptors [1]; AtT20, read-out: maximal response (Emax)): 29 ± 3%
- % NREM (male Long-Evans rats [2]; days 1, 8, 15): increased % NREM initially on days 1 and 8, however this effect was diminished by day 15
- % REM (male Long-Evans rats [2]; days 1, 8, 15): affected
- % quiet wake (male Long-Evans rats [2]; days 1, 8, 15): affected
- REM bout duration (male Long-Evans rats [2]; days 1, 8, 15): affected
- REM bout number (male Long-Evans rats [2]; days 1, 8, 15): affected
- total wake time (male Long-Evans rats [2]; days 1, 8, 15): decreased
- NREM sleep onset latency (male Long-Evans rats [2]; days 1, 8, 15, main effect): increased
- REM sleep onset latency (male Long-Evans rats [2]; days 1, 8, 15, main effect): increased
- NREM bout duration (male Long-Evans rats [2]; [11]): increased
- NREM bout number (male Long-Evans rats [2]; [11]): decreased
- % active wake (male Long-Evans rats [2]; days 1, 8, 15, subject to tolerance): decreased
- total sleep time over days (male Long-Evans rats [2]; recordings days 1, 8, 15, between-subjects vs vehicle, n = 8): increased
- Tmax ([3]; ip, rat brain after CBN 10 mg/kg, read-out: brain Tmax): 2 h
- Tmax ([3]; ip, rat plasma after CBN 10 mg/kg, read-out: plasma Tmax (converted)): 0.5 h
- half-life ([3]; ip, rat, after CBN 10 mg/kg, similar in plasma and brain, read-out: half-life in plasma and brain (converted)): ~2 h
- Brain AUC∞ ([3]; rat brain after CBN 10 mg/kg IP, analyte as labelled): 1623 pg hour/mg brain
- Brain Cmax ([3]; rat brain after CBN 10 mg/kg IP, analyte as labelled, n = 4): 373 ± 26 pg/mg brain
- half-life ([3]; rat brain after CBN 10 mg/kg IP, analyte as labelled, read-out: Brain t½ (converted)): 2.2 h
- Brain Cmax ([3]; rat brain following systemic administration of CBN): 1.2 µM
- Plasma AUC∞ ([3]; rat plasma after CBN 10 mg/kg IP, analyte as labelled): 775 ng·h/mL
- Cmax ([3]; rat plasma after CBN 10 mg/kg IP, analyte as labelled, n = 4): 374 ± 34 ng/mL
- half-life ([3]; rat plasma after CBN 10 mg/kg IP, analyte as labelled, read-out: Plasma t½ (converted)): 1.93 h
- Brain/plasma ratio ([3]; rat, after CBN 10 mg/kg IP, analyte as labelled): ~2
- Kp ([3]; rat, brain and plasma, ip, 10 mg/kg, rat, after CBN 10 mg/kg IP, analyte as labelled, read-out: Brain/plasma ratio): 2.09
- Cmax ([3]; rat, plasma, intraperitoneal, rats, 10 mg/kg CBN dose): 374 ng/mL
- highest plasma CBN concentration (Cmax) following cannabis smoking [4]: 11.6 ng/mL
- plasma exposures (AUC), oral lower than intraperitoneal at the same dose [5]: ~5 fold
- activity at human CB1 receptors (human CB1 receptors [6]): inactive
- % NREM sleep compared to vehicle (male Long-Evans rats [7]; CBN 10 mg/kg and 100 mg/kg, various time points from ZT16–20): significantly increased
- cumulative total sleep time (male Long-Evans rats [7]; CBN 10 mg/kg dose only, from ZT17): significantly increased
- NREM delta power at specific time points (male Long-Evans rats [7]; CBN 30 mg/kg and 100 mg/kg at ZT17 and 18, zolpidem 10 mg/kg at ZT13 and 14): increase
- NREM delta power (male Long-Evans rats [7]; EEG power spectra, overall effect, acute IP, CBN 10, 30, 100 mg/kg, zolpidem 10 mg/kg, 11-OH-CBN 1, 3, 10 mg/kg): Neither CBN nor zolpidem had robust effects
- REM theta power (male Long-Evans rats [7]; EEG power spectra, acute IP, CBN 10, 30, 100 mg/kg, zolpidem 10 mg/kg, 11-OH-CBN 1, 3, 10 mg/kg): increased
- delayed onset of action on % NREM sleep, time post-dosing (male Long-Evans rats [7]; acute IP at ZT13): 3 to 4 h
- total sleep time (male Long-Evans rats [7]; acute IP at ZT13 (dark phase) vs vehicle, CBN 10, 30, 100 mg/kg, zolpidem 10 mg/kg, 11-OH-CBN 1, 3, 10 mg/kg, n = 8): increased
- cumulative NREM time (male Long-Evans rats [7]; [12]): biphasic effect
- cumulative REM time (male Long-Evans rats [7]; [12]): similarly influenced
- % NREM sleep (male Long-Evans rats [7]; [13]): increased
- % REM sleep (male Long-Evans rats [7]; [13]): initially suppressed % REM, before it increased % REM at ZT17-18
- % active wake (male Long-Evans rats [7]; [13]): decreased
- % quiet wake (male Long-Evans rats [7]; [13]): affected
- NREM sleep onset latency (male Long-Evans rats [7]; [13]): did not affect
- REM bout duration (male Long-Evans rats [7]; [13]): initially decreased REM bout duration and then increased duration of REM bouts
- REM bout number (male Long-Evans rats [7]; [13]): biphasically influenced
- REM sleep onset latency (male Long-Evans rats [7]; [13]): increased
- cumulative total sleep time (male Long-Evans rats [7]; [13]): biphasic effects
- mean duration of NREM bouts per hour (male Long-Evans rats [7]; [13]): increased
- number of NREM bouts per hour (male Long-Evans rats [7]; [13]): decreased
- total wake time (male Long-Evans rats [7]; [13]): decreased
- body temperature (male Long-Evans rats [7]; subcutaneous, telemetry, acute IP, CBN 10, 30, 100 mg/kg, zolpidem 10 mg/kg, 11-OH-CBN 1, 3, 10 mg/kg): did not robustly effect
- locomotor activity counts (male Long-Evans rats [7]; telemetry, acute IP, CBN 10, 30, 100 mg/kg, zolpidem 10 mg/kg, 11-OH-CBN 1, 3, 10 mg/kg): decreased
- pentobarbital-induced sleep time (rats [8]): prolonged
- body temperature or locomotor activity (rats [9]; CBN up to 80 mg/kg IP, ref Fernandes et al (1974)): did not influence
- body temperature (rats [9]; [14]): reduced
- locomotor activity (rats [9]; [14]): suppressed
- activity at CB2 (human CB2 receptors): < 20%
- number of awakenings and overall sleep disturbance [10]: significantly reduced
- sleep onset latency [10]: did not influence
